Our source for the EC50 and activation values is EP3789378A1, “PIPERIDINES OR PIPERIDONES SUBSTITUTED WITH UREA AND HETEROARYL” (Grünenthal GmbH, priority 2019, dated 2021).

pEC50: −log10 of the molar value. Structures can show the parent of a compound that is named as a salt.

The pEC50 is the EC50 on a negative log10 scale, so that one unit is a factor of ten.

One assay deals with T1, h FPR2 (Homo sapiens, UniProt P25090).
T1 construct: expressed in transfected cells
T1 sequence (P25090 1-351): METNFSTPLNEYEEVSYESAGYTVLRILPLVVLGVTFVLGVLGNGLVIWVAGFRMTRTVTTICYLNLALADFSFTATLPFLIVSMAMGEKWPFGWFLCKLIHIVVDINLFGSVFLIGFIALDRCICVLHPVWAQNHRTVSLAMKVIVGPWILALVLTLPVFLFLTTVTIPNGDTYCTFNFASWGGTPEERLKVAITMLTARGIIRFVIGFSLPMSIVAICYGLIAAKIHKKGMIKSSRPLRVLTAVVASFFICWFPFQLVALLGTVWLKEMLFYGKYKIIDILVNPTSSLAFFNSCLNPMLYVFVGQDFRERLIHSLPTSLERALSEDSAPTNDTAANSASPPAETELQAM
The experiment in a line: Agonistic activity in hFPR2-Aq-CHO cells (FLIPR Calcium 5 fluorescence assay). The format is cell-based. The conditions noted are these: 11 point half log dilution, final assay concentration from 10µM. The method in brief: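 EC50 reflects the compound-evoked rise in Calcium 5 fluorescence over basal, recorded for 5 min on FLIPR and compared with no-compound wells. Dye-loaded hFPR2-Aq-CHO cells received half-log dilutions from 10 µM to 100 pM final in pH 7.4 HBSS buffer.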
Turning to `COc1ccc([C@H]2CN(c3ccc(F)cc3)C(=O)C[C@H]2NC(=O)Nc2ccc(Cl)cc2)cn1` (relative stereo) [Ex-6, cis-1-(4-chlorophenyl)-3-[1-(4-fluorophenyl)-5-(6-methoxypyridin-3-yl)-2-oxopiperidin-4-yl]urea], the pEC50 was 8.22.
Still for that read-out and setting: then `COc1ccc([C@@H]2CN(C(=O)CO)CC[C@H]2NC(=O)Nc2cc(C)ns2)nc1` (relative stereo) [Ex-123, trans-1-[1-(2-Hydroxy-acetyl)-3-(5-methoxy-pyridin-2-yl)-piperidin-4-yl]-3-(3-methyl-isothiazol-5-yl)-urea], with 7.74.
On to `COc1ccc([C@@H]2CN(Cc3cnn(C)c3)CC[C@H]2NC(=O)Nc2ccc(C#N)cc2)nc1` (relative stereo) [Ex-146, trans-1-(4-Cyano-phenyl)-3-[3-(5-methoxy-pyridin-2-yl)-1-[(1-methyl-1H-pyrazol-4-yl)-methyl]-piperidin-4-yl]-urea], for which the pEC50 was 8.70.
Take `COCCC(=O)N1CC[C@@H](NC(=O)Nc2ccc(Cl)cc2)[C@H](c2ccc(OC)cn2)C1` (relative stereo) [Ex-79, trans-1-(4-chlorophenyl)-3-[5-methoxy-1'-(3-methoxy-propionyl)-1',2',3',4',5',6'-hexahydro-[2,3']bipyridinyl-4'-yl]-urea]: the pEC50 is 7.64.
On the same count and under the same terms, then `COc1ccc([C@@H]2CN(C(=O)CN(C)C)CC[C@H]2NC(=O)Nc2ccc(Cl)cc2)nc1` (single isomer, unassigned) [Ex-189, trans-1-(4-chlorophenyl)-3-[1-[2-(dimethylamino)acetyl]-3-(5-methoxypyridin-2-yl)piperidin-4-yl]urea], with 8.77.
Turning to `COc1ccc([C@@H]2CN(CC(F)F)CC[C@H]2NC(=O)Nc2ccccc2)nc1` (relative stereo) [Ex-150, trans-1-[1-(2,2-Difluoro-ethyl)-3-(5-methoxy-pyridin-2-yl)-piperidin-4-yl]-3-phenyl-urea], the pEC50 is 8.52.
On to `COc1cnc([C@@H]2CN(CCS(C)(=O)=O)CC[C@H]2NC(=O)Nc2ccc(Cl)cc2)c(F)c1` (relative stereo) [Ex-196, trans-1-(4-chloro-phenyl)-3-[3-fluoro-1'-(2-methanesulfonyl-ethyl)-5-methoxy-1',2',3',4',5',6'-hexahydro-[2,3']bipyridinyl-4'-yl]-urea], for which the pEC50 is 9.15.
For `O=C(Nc1ccc(Cl)cc1)N[C@@H]1CCN(Cc2ccc(C(F)(F)F)nc2)C[C@H]1c1ccc(Cl)s1` (relative stereo) [Ex-74, trans-1-(4-chlorophenyl)-3-[3-(5-chlorothiophen-2-yl)-1-{[6-(trifluoromethyl)pyridin-3-yl]methyl}piperidin-4-yl]urea], the pEC50 is 8.70.
Same read-out and setting: then `COc1ccc([C@@H]2CN(CC3COC3)CC[C@H]2NC(=O)Nc2cc(C)ns2)nc1` (relative stereo) [Ex-204, trans-1-(5-methoxy-1'-oxetan-3-ylmethyl-1',2',3',4',5',6'-hexahydro-[2,3']bipyridinyl-4'-yl)-3-(3-methyl-isothiazol-5-yl)-urea], with 8.40.
Still for that read-out and setting: the result for `COc1ccc([C@@H]2CN(CC(N)=O)CC[C@H]2NC(=O)Nc2ccc(Cl)cc2)nc1` (relative stereo) [Ex-129, trans-2-[4-[[(4-Chlorophenyl)-carbamoyl]amino]-3-(5-methoxy-pyridin-2-yl)-piperidin-1-yl]-acetamide] reads 9.52; that for `O=C(Nc1ccc(Cl)cc1)N[C@@H]1CCN(CC2CCOCC2)C[C@H]1c1ccc(Cl)s1` (single isomer, unassigned) [Ex-85, trans-1-(4-chlorophenyl)-3-(3-(5-chlorothiophen-2-yl)-1-((tetrahydro-2H-pyran-4-yl)methyl)piperidin-4-yl)urea], 7.85.
On to `COc1ccc([C@@H]2CN(c3ccc(F)cc3)C(=O)C[C@H]2NC(=O)Nc2ccc(Cl)cc2)nc1` (relative stereo) [Ex-10, trans-1-(4-chlorophenyl)-3-[1-(4-fluorophenyl)-5-(5-methoxypyridin-2-yl)-2-oxopiperidin-4-yl]urea], for which the pEC50 was 10.30.
Still for that read-out and setting: the result for `COc1ccc([C@@H]2CN(CC3COC3)CC[C@H]2NC(=O)Nc2ccc(Cl)cc2)nc1` (relative stereo) [Ex-109, trans-1-(4-chloro-phenyl)-3-(5-methoxy-1'-oxetan-3-ylmethyl-1',2',3',4',5',6'-hexahydro-[2,3']bipyridinyl-4'-yl)-urea] reads 8.92; that for `CNCCN1CC[C@@H](NC(=O)Nc2cc(C)ns2)[C@H](c2ccc(OC)cn2)C1` (relative stereo) [Ex-134, trans-1-[3-(5-Methoxy-pyridin-2-yl)-1-(2-methylamino-ethyl)-piperidin-4-yl]-3-(3-methyl-isothiazol-5-yl)-urea], 8.70; that for `COc1ccc([C@@H]2CN(CC3CC(C)(O)C3)CC[C@H]2NC(=O)Nc2ccc(Cl)cc2)nc1` (relative stereo) [Ex-207, trans-1-(4-chloro-phenyl)-3-[1'-(3-hydroxy-3-methyl-cyclobutylmethyl)-5-methoxy-1',2',3',4',5',6'-hexahydro-[2,3']bipyridinyl-4'-yl]-urea], 8.05.
As to `COc1ccc([C@@H]2CN(C(=O)C3CC(O)C3)CC[C@H]2NC(=O)Nc2cc(C)ns2)nc1` (single isomer, unassigned) [Ex-138, trans-1-[1-(3-Hydroxy-cyclobutanecarbonyl)-3-(5-methoxy-pyridin-2-yl)-piperidin-4-yl]-3-(3-methyl-isothiazol-5-yl)-urea], the pEC50 was 8.15.
With `Cc1cc(NC(=O)N[C@@H]2CCN(c3cnccn3)C[C@H]2c2ccc(Cl)cn2)sn1` (relative stereo) [Ex-19, trans-1-(5-chloro-1'-pyrazin-2-yl-1',2',3',4',5',6'-hexahydro-[2,3']bipyridinyl-4'-yl)-3-(3-methyl-isothiazol-5-yl)-urea], the pEC50 is 9.10.
On to `COc1ccc([C@@H]2CN(Cc3cnn(C)c3)CC[C@H]2NC(=O)Nc2ccc(Cl)cc2)nc1` (relative stereo) [Ex-145, trans-1-(4-Chlorophenyl)-3-[3-(5-methoxy-pyridin-2-yl)-1-[(1-methyl-1H-pyrazol-4-yl)-methyl]-piperidin-4-yl]-urea], for which the pEC50 was 9.52.
Still for that read-out and setting: then `COc1ccc([C@@H]2CN(CCO)CC[C@H]2NC(=O)Nc2cc(C)ns2)nc1` (relative stereo) [Ex-122, trans-1-[1-(2-Hydroxy-ethyl)-3-(5-methoxy-pyridin-2-yl)-piperidin-4-yl]-3-(3-methyl-isothiazol-5-yl)-urea], with 8.52.
With `COc1ccc([C@@H]2CN(C(=O)CCN(C)C)CC[C@H]2NC(=O)Nc2ccc(Cl)cc2)nc1` (relative stereo) [Ex-95, trans-1-(4-chloro-phenyl)-3-[1'-(3-dimethylamino-propionyl)-5-methoxy-1',2',3',4',5',6'-hexahydro-[2,3']bipyridinyl-4'-yl]-urea], the pEC50 is 7.92.
The same measure, in the same setting: the result for `COc1ccc([C@@H]2CN(CC(F)F)CC[C@H]2NC(=O)Nc2ccc(C#N)cc2)nc1` (single isomer, unassigned) [Ex-174, trans-1-(4-Cyano-phenyl)-3-[1-(2,2-difluoro-ethyl)-3-(5-methoxy-pyridin-2-yl)-piperidin-4-yl]-urea] reads 8.85; that for `COc1ccc([C@@H]2CN(C(=O)C3CCN(C)CC3)CC[C@H]2NC(=O)Nc2ccccc2)nc1` (relative stereo) [Ex-156, trans-1-[3-(5-Methoxy-pyridin-2-yl)-1-(1-methyl-piperidine-4-carbonyl)-piperidin-4-yl]-3-phenyl-urea], 7.24.
Consider `O=C(Nc1ccc(Cl)cc1)N[C@@H]1CCN(CC2CCNCC2)C[C@H]1c1ccc(Cl)s1` (single isomer, unassigned) [Ex-83, trans-1-(4-chlorophenyl)-3-[3-(5-chlorothiophen-2-yl)-1-(piperidin-4-ylmethyl)piperidin-4-yl]urea dihydrochloride], for which the pEC50 was 9.70.
Take `COc1ccc([C@@H]2CN(C(=O)c3cnccc3C(F)(F)F)CC[C@H]2NC(=O)Nc2ccc(Cl)cc2)nc1` (single isomer, unassigned) [Ex-99, trans-1-(4-chlorophenyl)-3-[3-(5-methoxypyridin-2-yl)-1-{[4-(trifluoromethyl)pyridin-3-yl]carbonyl}piperidin-4-yl]urea]: the pEC50 is 9.40.
`COc1ccc([C@@H]2CN(CC3(O)CCC3)CC[C@H]2NC(=O)Nc2ccc(Cl)cc2)nc1` (relative stereo) [Ex-220, trans-1-(4-chloro-phenyl)-3-[1'-(1-hydroxy-cyclobutylmethyl)-5-methoxy-1',2',3',4',5',6'-hexahydro-[2,3']bipyridinyl-4'-yl]-urea]: the pEC50 was 9.40.

The assay is the same for the next values; noted with them: agonistic response at 0.1µM.
`O=C(Nc1ccc(Cl)cc1)N[C@@H]1CCN(CC2CCOCC2)C[C@H]1c1ccc(Cl)s1` (relative stereo) [Ex-86, trans-1-(4-chlorophenyl)-3-(3-(5-chlorothiophen-2-yl)-1-((tetrahydro-2H-pyran-4-yl)methyl)piperidin-4-yl)urea]: the activation at 0.1 µM came out at 19%.
For the compound `COc1ccc([C@@H]2CN(CC(F)F)CC[C@H]2NC(=O)Nc2ccc(C#N)cc2)nc1` (relative stereo) [Ex-175, trans-1-(4-Cyano-phenyl)-3-[1-(2,2-difluoro-ethyl)-3-(5-methoxy-pyridin-2-yl)-piperidin-4-yl]-urea], the activation at 0.1 µM was determined as 17%.
